Patent publication US10092556B2, “Piperidine compound or salt thereof” (TAIHO PHARMACEUTICAL CO., LTD., priority 2012, dated 2018)

How the values were obtained:
[1] = test system: human-derived stomach cancer cell line SNU-16; assay: Inhibitory effect on cell proliferation (CellTiter-Glo, 72 hours); type: cell-based; conditions: SNU-16, 72 hours
From the text: Cells of the human-derived stomach cancer cell line SNU-16 were each routinely subcultured in the 10% fetal bovine serum (FBS)-containing RPMI-1640 medium and 10% FBS-containing Dulbecco's Modified Eagle Medium (DMEM) in order to maintain cell density of no more than 80%. In order to initiate a test for the inhibitory activity on cell proliferation, cells were each suspended in the aforementioned medium and seeded in each well of a 96-well flat bottom plate (black plate with a transparent bottom) at 2,500 or 3,000 cells per well. The cells were then cultured for one day at 37° C. in an incubator containing 5% carbon dioxide gas. The next day, the compound of the present invention and the subject compound were dissolved in DMSO, and using DMSO, the test compounds were serially diluted to a concentration of 200 times the final concentration. The solution of the test compounds in DMSO was diluted with the medium used for culturing, and then added to each well of the cell culture plate at a final DMSO concentration of 0.5%. The cells were cultured for 72 hours at 37° C. in an incubator containing 5% carbon dioxide gas. The cells were counted at the time of addition of the test compounds and 72 hours after culturing using the CellTiter-Glo Luminescent Cell Viability Assay kit (the product of Promega) based on the protocol recommended by Promega. The reagent included in the kit was added to each plate, followed by stirring, and the plates were left to stand at room temperature for 10 minutes. Upon completion of the reaction, the luminescence signal was measured using a microplate reader.
The cell proliferation inhibitory rate was calculated from the following formula and the concentration of the test compound at which the cell proliferation was inhibited by 50% (GI50 (nM)) was determined. Cell proliferation inhibitory rate (%)=(C−T)/(C−C0)×100 T: Luminescence signal in a well with the addition of the test compound C: Luminescence signal in a well without the addition of the test compound C0: Luminescence signal in a well measured before the addition of the compound

[2] = Evaluation of oral absorbability (plasma concentration after oral administration); type: in vivo; conditions: BALB/cA mouse, 0.5% HPMC, 0.5-6 hours
Procedure: The test compound was suspended or dissolved in 0.5% HPMC and orally administered to a BALB/cA mouse. The blood was drawn from the retro-orbital venous plexus 0.5, 1, 2, 4, and 6 hours after oral administration to obtain plasma. The concentration of the compound in the plasma thus obtained was measured by LCMS and the oral absorbability was evaluated.

[3] = test system: human uterine cervical cancer cell line (Hela-Luc); assay: Evaluation of the anti-tumor effect (2), Hela-Luc subcutaneous transplant in nude mouse; type: in vivo; conditions: Day 11, paclitaxel 20 mg/kg iv day 1
[4] = test system: human uterine cervical cancer cell line (Hela-Luc); assay: Evaluation of the anti-tumor effect (1), Hela-Luc subcutaneous transplant in nude mouse; conditions: Day 23; paclitaxel 30 mg/kg iv day 1; compound 60 mg/kg oral twice a day on day 2 and 3
From the text: The luciferase-introduced human uterine cervical cancer cell line (Hela-Luc) was subcutaneously transplanted into a nude mouse, and when the volume of the grafted tumor reached 100 to 200 mm^3, five mice in one group were grouped into the single drug administration group and combinational administration group by a randomized stratification method so as to achieve a uniform tumor volume in each group (day 1). […] In order to compare the anti-tumor effect brought about by drug administration, setting the tumor volume at the time of grouping at 1, the relative tumor volume (RTV) was determined in accordance with the following formula as a rate of tumor proliferation. RTV=(Tumor volume on the day of measurement of tumor volume)/(Tumor volume at the time of grouping)
Meanwhile, as the index of systemic toxicity caused by drug administration, the body weight change (BWC) was used. BWC (%)=([(Body weight of mouse on the day of body weight measurement)−(Body weight of mouse at the time of grouping)]/(Body weight of mouse at the time of grouping))×100

[5] = Table 23, Compound 22 100 mg/kg single, 60 mg/kg in combination, oral twice a day on day 2 and 3
[6] = Table 22, Compound 13 30 mg/kg oral twice a day on day 2 and 3

SMILES: Cc1cc(Nc2nc(CC3(C(=O)O)CCN(C(=O)c4cccc(Cl)c4Cl)CC3)ccc2F)n[nH]1 [Example 1, 1-(2,3-dichlorobenzoyl)-4-((5-fluoro-6-(5-methyl-1H-pyrazol-3-ylamino)pyridin-2-yl)methyl)piperidine-4-carboxylic acid]
- GI50 [1]: 0.12 µM
- oral absorbability (plasma concentration after oral administration) [2]: favorable oral absorbability

SMILES: Cc1cc(Nc2nc(CC3(c4noc(C)n4)CCN(C(=O)c4cccc(Cl)c4F)CC3)ccc2F)n[nH]1 [Example 22, (3-chloro-2-fluorophenyl)(4-((5-fluoro-6-(5-methyl-1H-pyrazol-3-ylamino)pyridin-2-yl)methyl)-4-(5-methyl-1,2,4-oxadiazol-3-yl)piperidin-1-yl)methanone]
- GI50 [1]: 0.97 µM
- oral absorbability (plasma concentration after oral administration) [2]: favorable oral absorbability
- BWC (body weight change) [3, 5]: 6.9%

SMILES: COc1ccc(CC2(C(=O)O)CCN(C(=O)c3cccc(Cl)c3F)CC2)nc1Nc1cc(C)[nH]n1 [Example 11, 1-(3-chloro-2-fluorobenzoyl)-4-((5-methoxy-6-(5-methyl-1H-pyrazol-3-ylamino)pyridin-2-yl)methyl)piperidine-4-carboxylic acid]
- oral absorbability (plasma concentration after oral administration) [2]: favorable oral absorbability

SMILES: Cc1cc(Nc2nc(CC3(C(=O)O)CCN(C(=O)c4cccc(Cl)c4F)CC3)ccc2F)n[nH]1 [Example 13, 1-(3-chloro-2-fluorobenzoyl)-4-((5-fluoro-6-(5-methyl-1H-pyrazol-3-ylamino)pyridin-2-yl)methyl)piperidine-4-carboxylic acid]
- GI50 [1]: 0.06 µM
- oral absorbability (plasma concentration after oral administration) [2]: favorable oral absorbability
- BWC (body weight change) [3, 6]: 6.0%

SMILES: Cc1cc(Nc2nc(CC3(C(=O)O)CCN(C(=O)c4cccc(Cl)c4F)CC3)ccc2Cl)n[nH]1 [Example 12, 1-(3-chloro-2-fluorobenzoyl)-4-((5-chloro-6-(5-methyl-1H-pyrazol-3-ylamino)pyridin-2-yl)methyl)piperidine-4-carboxylic acid]
- oral absorbability (plasma concentration after oral administration) [2]: favorable oral absorbability

SMILES: CC(=O)O[C@H]1C(=O)[C@@]2(C)[C@H]([C@H](OC(=O)c3ccccc3)[C@]3(O)C[C@H](OC(=O)[C@H](O)[C@@H](NC(=O)c4ccccc4)c4ccccc4)C(C)=C1C3(C)C)[C@]1(OC(C)=O)CO[C@@H]1C[C@@H]2O [Paclitaxel, paclitaxel, reference compound]
- BWC (body weight change) [3, 6]: 5.4%
- BWC (body weight change) [3, 5]: 7.8%
- BWC (body weight change) [4]: 3.0%
